≈ marks a conversion by molar mass, not a printed value. Calls of active or inactive are those of the source. No cut-off for these calls is given here.
Columns and labels:
[1] = tested on: Mycobacterium tuberculosis; assay: Minimum inhibitory concentration against (MDR-TB) Mycobacterium tuberculosis using microplate alamar blue assay; type: functional
[2] = tested on: Mycobacterium tuberculosis; assay: Minimum inhibitory concentration against Mycobacterium tuberculosis using microplate alamar blue assay; type: functional
[3] = tested on: Plasmodium falciparum; assay: In vitro activity as 50% reduction in parasite growth against Plasmodium falciparum by [3H]hypoxanthine uptake; type: functional, organism-based
[4] = Cytotoxic concentration of compound against human small cell lung cancer (NCI-187); type: functional
[5] = Cytotoxic concentration of compound against human epidermal carcinoma (KB) cell line; type: functional
[6] = tested on: Breast carcinoma cell; assay: Cytotoxic concentration of compound against human breast cancer cells; type: functional, cell-based
[7] = tested on: Mycobacterium tuberculosis; assay: Minimum inhibitory concentration against Mycobacterium tuberculosis using microplate alamar blue assay; Inactive; type: functional, organism-based

Row | Compound | MIC [2] [µg/mL] | further results
1 | CC(C)/N=c1\cc2n(-c3ccc(Cl)cc3)c3ccccc3nc-2cc1Nc1ccc(Cl)cc1 [CLOFAZIMINE] |  | MIC [1]: 2 µg/mL (≈ 4.22 µM)
2 | NC[C@H]1O[C@H](O[C@H]2[C@H](O)[C@@H](O[C@H]3O[C@H](CO)[C@@H](O)[C@H](N)[C@H]3O)[C@H](N)C[C@@H]2N)[C@H](O)[C@@H](O)[C@@H]1O.O=S(=O)(O)O [KANAMYCIN SULFATE] | 5 | 
3 | Cc1cc(Nc2ccccc2)nc(Cl)n1 | 50 (≈ 228 µM) | 
4 | C[C@@H]1CC[C@H]2[C@@H](C)C(=O)O[C@@H]3O[C@@]4(C)CC[C@@H]1[C@]32OO4 [ARTEMISININ] |  | IC50 [3]: 0.001 µg/mL (≈ 0.00354 µM)
5 | Cc1c2ccncc2c(C)c2c1[nH]c1ccccc12 [ELLIPTECINE] |  | IC50 [4]: 0.1 µg/mL (≈ 0.406 µM); IC50 [5]: 0.1 µg/mL (≈ 0.406 µM); IC50 [6]: 0.1 µg/mL (≈ 0.406 µM)
6 | NC(=O)c1cnccn1 [PYRAZINAMIDE] | 20 (≈ 162 µM) | 
7 | CCN(CC)c1nc(C)cc(Nc2ccccc2)n1 | 25 (≈ 97.5 µM) | 
8 | CCCN(CC1CC1)c1nc(C)cc(N(C)c2ccccc2)n1 | 12.5 (≈ 40.3 µM) | 
9 | Cc1cc(C)c(Nc2cc(C)nc(Cl)n2)c(C)c1 |  | MIC [7]: inactive
10 | CCN(CC)c1nc(C)cc(N(C)c2ccccc2)n1 | 50 (≈ 185 µM) | 
11 | NNC(=O)c1ccncc1 [ISONIAZID] | 0.04 (≈ 0.292 µM) | 
12 | CCCN(CC1CC1)c1nc(C)cc(N(C)c2c(C)cc(C)cc2C)n1 | 3.12 (≈ 8.85 µM) | 
13 | CCCN(CC1CC1)c1nc(C)cc(Nc2ccccc2)n1 | 12.5 (≈ 42.2 µM) | 

Reference: ChEMBL document CHEMBL1136392, “Anilinopyrimidines as novel antituberculosis agents” (Bioorg Med Chem Lett, 2003)
